Molecules are shown by their SMILES. Where a name gives a salt, the structure may show the parent alone.

System in the first series: not given
Experiment: not given
Details: not given
A word on the melting point: it is the temperature, or range, at which the solid turns liquid. In turn, `CCCC(C)(C)CC(CN)C(=O)O.Cl` (stereo not drawn) [2-Aminomethyl-4,4-dimethyl-heptanoic Acid Hydrochloride] returned a melting point of 229.5 to 231 °C.
Still for that read-out and setting: then `CCC[C@@H](C)C[C@H](N)CC(=O)O.Cl`, with 142.5 to 142.7 °C; and `CCC[C@@H](C)C[C@H](CN)C(=O)O` (as salt: hydrochloride) [(2R,4R)-2-Aminomethyl-4-methyl-heptanoic Acid], with 226.3 to 228 °C; and `CCCC(C)(C)C[C@H](N)CC(=O)O` (as salt: hydrochloride), with 194.2 to 195.2 °C.
Regarding `CCCC[C@@H](C)C[C@H](N)CC(=O)O` (as salt: hydrochloride), the melting point lay within 142.5 to 143.3 °C.

The target in another series is T1, α2δ-subunit of a calcium channel (Sus scrofa, UniProt A0A287BIN3).
T1 construct: the α2δ-subunit derived from porcine brain tissue was used; from tissue; host or cells: porcine brain tissue
T1 sequence (A0A287BIN3 25-1109): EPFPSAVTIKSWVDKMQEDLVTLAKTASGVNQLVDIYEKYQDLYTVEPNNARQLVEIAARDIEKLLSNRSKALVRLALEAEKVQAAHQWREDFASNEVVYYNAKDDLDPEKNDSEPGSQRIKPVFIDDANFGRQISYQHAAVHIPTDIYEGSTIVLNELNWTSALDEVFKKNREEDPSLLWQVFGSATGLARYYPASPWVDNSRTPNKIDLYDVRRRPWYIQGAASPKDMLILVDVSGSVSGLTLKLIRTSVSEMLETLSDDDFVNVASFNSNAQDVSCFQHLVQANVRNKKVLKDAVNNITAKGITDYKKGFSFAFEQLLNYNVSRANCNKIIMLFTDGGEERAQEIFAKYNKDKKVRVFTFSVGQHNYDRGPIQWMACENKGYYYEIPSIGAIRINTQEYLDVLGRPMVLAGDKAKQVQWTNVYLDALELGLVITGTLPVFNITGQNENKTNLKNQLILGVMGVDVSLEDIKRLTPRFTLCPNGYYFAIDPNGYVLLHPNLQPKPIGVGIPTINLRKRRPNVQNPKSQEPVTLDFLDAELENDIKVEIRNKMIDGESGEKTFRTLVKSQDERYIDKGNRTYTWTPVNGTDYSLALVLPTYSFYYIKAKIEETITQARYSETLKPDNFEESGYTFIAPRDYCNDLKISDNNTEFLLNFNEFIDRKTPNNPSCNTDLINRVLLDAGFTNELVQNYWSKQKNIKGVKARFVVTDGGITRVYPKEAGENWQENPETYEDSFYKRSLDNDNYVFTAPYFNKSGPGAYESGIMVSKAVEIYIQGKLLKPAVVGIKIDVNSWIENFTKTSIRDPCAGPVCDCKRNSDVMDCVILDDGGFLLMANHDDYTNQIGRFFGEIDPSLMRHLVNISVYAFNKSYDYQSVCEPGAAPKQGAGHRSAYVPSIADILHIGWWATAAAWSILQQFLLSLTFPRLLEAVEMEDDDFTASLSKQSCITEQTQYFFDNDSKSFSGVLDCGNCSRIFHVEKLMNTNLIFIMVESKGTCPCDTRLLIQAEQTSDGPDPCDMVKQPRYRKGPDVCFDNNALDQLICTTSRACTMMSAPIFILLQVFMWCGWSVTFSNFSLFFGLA
The series can be described thus: radioligand binding assay using [3H]-gabapentin. The following applies: α2δ-subunit derived from porcine brain tissue. The text has this: The ability of compounds of the present invention to bind to the α2δ-subunit of a calcium channel can be determined using the following binding assay.
The radioligand binding assay using [^3H]-gabapentin and the α2δ-subunit derived from porcine brain tissue was used (See, Gee, Nicolas S et al. “The novel anticonvulsant drug, gabapentin (Neurontin), binds to the α2δ subunit of a calcium channel”. J. Biol. Chem. (1996), 271 (10), 5768–76). Compounds of the invention bind with nanomolar to micromolar affinity for the α2δ protein.
For `CCCC(C)(C)CC(CN)C(=O)O.Cl` (stereo not drawn) [2-Aminomethyl-4,4-dimethyl-heptanoic Acid Hydrochloride], the “affinity to the α2δ protein” value is 83 nM.
Same read-out and setting: for `CCC[C@H](C)C[C@H](N)CC(=O)O` [(3S,5S)-3-amino-5-methyl-octanoic acid] the value was 1000 nM.
The same measure, in the same setting: for `CCC[C@@H](C)C[C@H](CN)C(=O)O` [(2R,4R)-2-Aminomethyl-4-methyl-heptanoic Acid] the value was 29 nM.
In the case of `CC(C)CCCC(C)C[C@@H](N)CC(=O)O` (stereo partly drawn) [R-3-amino-5,9-dimethyl-decanoic acid], the “affinity to the α2δ protein” value amounted to 527 nM.
